“Also recorded” adds a separate entry of the source.
Legend:
[1] = cited from earlier work
[2] = test system: Wistar rats intoxicated with PQ
Description: The study was performed using (n=84) adults male Wistar rats obtained from Charles River S. A. (Barcelona, Spain), with a mean weight of 250±10 g. Animals were randomly distributed in number of two per polypropylene cages with a stainless steel net at the top and wood chips at the screen bottom, in a air-conditioned room (alternate cycles of 12 hours light and darkness, room temperature 22±2° C. and with a relative humidity of 50-60%) at least one week (quarantine) before starting the experience in order to acclimate to their surrounding conditions. Animals were allowed access to tap water and rat chow ad libitum during the quarantine period. Housing and experimental treatment of animals were in accordance with National Institutes of Health guidelines (ILAR 1996). The experiments complied with the current laws of Portugal.
(§1) The biochemical and histological studies were carried out with 60 animals, randomly distributed to ten groups. Each animal was individually housed during the experimental period in a polypropylene cage with a stainless steel net at the top and wood chips at the screen bottom. Tap water and rat chow were given ad libitum during the entire experiment. […] Each group was treated as follows: (doses were given per Kg/body weight):
For the evaluation of survival rate, 24 animals were randomly divided into four groups (control, NaSAL, PQ and PQ+NaSAL) of six animals each. […]

[3] = test system: lung tissue of Wistar rats; conditions: rat, in vivo
Description: as §1
(I) Control group, n=6: animals treated with 0.9% NaCl. Animals were treated with one more administration of 0.9% NaCl two hours later and sacrificed 24 hours after the second injection;
(II) NaSAL group, n=18: animals treated with 0.9% NaCl. Animals were treated with one administration of NaSAL (200 mg/kg) two hours later and sacrificed 24 hours (n=6, NaSAL 24 h group), 48 hours (n=6, NaSAL 48 h group) and 96 hours (n=6, NaSAL 96 h group) after the second injection;
(III) PQ group, n=18: animals intoxicated with PQ (25 mg/kg). Animals were treated with one more administration of 0.9% NaCl two hours later and sacrificed 24 hours (n=6, PQ 24 h group), 48 hours (n=6, PQ 48 h group) and 96 hours (n=6, PQ 96 h group) after the second injection;
(IV) PQ+NaSAL group, n=18: animals intoxicated with PQ (25 mg/kg). Two hours later, animals were treated with NaSAL (200 mg/kg) and sacrificed 24 hours (n=6, PQ+NaSAL 24 h group), 48 hours (n=6, PQ+NaSAL 48 h group) and 96 hours (n=6, PQ+NaSAL 96 h group) after the second injection.
Two animals of each group were assigned to histological analysis. Lung samples were subjected to routine procedures for light microscopy (LM) and transmission electron microscopy (TEM) analysis. With the animals under anaesthesia, lung fixation was initiated in situ by perfusion through pulmonary artery, with 2.5% glutaraldehyde in 0.2 M sodium cacodylate buffer (pH 7.2-7.4) during 3 min. Subsequently, lungs were excised and sectioned into approximately 1 mm^3 cubic pieces. After two washing steps, of 30 minutes each with buffer solution, the specimens were dehydrated in graded alcohol for 2 hours, and then embedded in Epon resin. […]

## CC(=O)Oc1ccccc1C(=O)O [acetylsalicylic acid]
[1]; 30 minutes after a dose of 0.65 g
  share of the total plasma salicylate in the acetylated form: 27%
[1]; in vivo
  plasma half-life: about 15 min

## C[n+]1ccc(-c2cc[n+](C)cc2)cc1.[Cl-].[Cl-] [paraquat, 1,1′-dimethyl-4,4′-bipyridinium dichloride]
[2]; intraperitoneal PQ dose, absence of treatment, at the end of 6 days
  lethality: 100%
[3]
  lung structure (light and electron micrographs): a marked vascular congestion and a notorious generalized alveolar collapse; also recorded: areas of necrosis of the alveolar wall and macrophages, cellular debris and inflammatory infiltrate within the alveolar space; also recorded: an intense vascular congestion as well as the presence of cellular debris and phagocytes within the alveolar space

## O=C([O-])c1ccccc1O.[Na+] [sodium salicylate, 2-hydroxybenzoic acid sodium salt]
[2]; PQ 25 mg/Kg i.p., sodium salicylate 200 mg/Kg i.p. two hours after PQ, 30 days after PQ
  survival: 100%
